Experimental data from patent US20230226034A1, “PROPHYLACTIC OR THERAPEUTIC AGENT FOR PHOTODERMATOSIS” (MITSUBISHI TANABE PHARMA CORPORATION, priority 2020, published 2023).
Marks after values point to notes of the source that are not given here.

Experiments:
[1] = tested on: Male albino hairless mice (Hos:HR-1); experiment: UV-A irradiated mouse photoaging model: skin wrinkles by visual observation; assay type: in vivo; conditions: 3 mg/kg once daily for 8 weeks (compound B oral, HP-228 intraperitoneal); score 0 to 3; FIG. 3
From the text: (§1) Male albino hairless mice (strain name: Hos:HR-1, Hoshino Laboratory Animals Inc.) were used. The mice were divided into groups so that the body weight of each group was homogenous, and from the next day, the dorsal skin of the mice was irradiated with an incremental amount of ultraviolet A at the frequency of five times a week for 8 weeks to induce photoaging in the groups other than the untreated group. The UV-A irradiation schedule was based on the report by Minami et al. (J Nutrition Biochem 2009, 20, 389).
(§2) Compound B: The required amount was weighed as free-form equivalent, and suspended in 0.5% MC to achieve the target concentration, and orally administered at a volume of 0.1 mL/10 g (body weight) at 3 mg/kg once daily for 8 weeks.
(§3) HP-228 (reference control, melanocortin receptor-activating peptide): The required amount of free-form was weighed and dissolved in PBS to achieve the target concentration. 0.1 mL/10 g (body weight) was injected intraperitoneally at 3 mg/kg once daily for 8 weeks.
Evaluation of skin wrinkles by visual observation (evaluation item a): The state of skin wrinkles was evaluated on a four-step scale from score 0 (fine wrinkles) to 3 (deep and coarse wrinkles) at a frequency of once a week for 8 weeks after UV-A irradiation.
The skin wrinkle score was tested by Mann-Whitney's U test adjusted for multiplicity, and the significance level was set at 0.05. […]

[2] = tested on: cyclobutane pyrimidine dimer (CPD); experiment: UV-A irradiated mouse photoaging model: skin histology, CPD immunostaining; assay type: in vivo
From the text: as §1, §2, §3
Skin histological examination (endpoint c): Skin samples were fixed in 10% neutral buffered formalin and paraffin sections were prepared. DNA damage induced by UV-A was detected by enzyme-antibody immunostaining using anti-cyclobutane pyrimidine dimer (CPD) antibody (Cosmo Bio).

type I collagen = experiment: UV-A irradiated mouse photoaging model: type I collagen content in the skin; assay type: in vivo; conditions: 3 mg/kg once daily for 8 weeks (compound B oral, HP-228 intraperitoneal); FIG. 4
From the text: as §1, §2, §3
Quantification of type I collagen content in the skin (evaluation item b): Mice were euthanized 8 weeks after UV-A irradiation, and their back skin was collected. Homogenates were prepared by adding acetic acid and pepsin to the collected skin. The amount of collagen in the skin homogenate, which was reduced by UV-A, was measured using the Mouse Collagen Type I ELISA Kit. […]

[3] = tested on: tyrosinase-related protein 1 (TYRP1); experiment: Expression of melanin-related gene TYRP1 in skin, clinical trial in healthy subjects; assay type: in vivo, human; conditions: back skin mRNA, next day versus day before administration
[4] = tested on: premelanosome protein (PMEL); experiment: Expression of melanin-related gene PMEL in skin, clinical trial in healthy subjects; assay type: in vivo, human; conditions: back skin mRNA, next day versus day before administration
skin of healthy subjects = conditions: FIG. 2
[5] = tested on: Male C57BL/6JHamSlc-Ay/+ mice; experiment: Effect on darkening of mouse body hair; assay type: in vivo; conditions: day 6
Protocol: Male C57BL/6JHamSlc-Ay/+ mice (Japan SLC, Inc.) were used. The test was performed with 29- or 30-days old mice, in order to use each individual whose hair cycle was at the anagen stage. The hair on the back of each of the mice was shaved with a clipper before the starting of administration, and any individual with no bad conditions such as nicks and maculae on the skin was selected, and subjected to grouping based on a group configuration shown in Table 3 by performing a simulation method so that the body weights in respective groups were uniform. Administration (also including preparation) of the test substance and evaluation of body hair were performed separately by respective different experimenters, and such evaluation was performed in a blinded manner. The starting date of administration was set to day 0, and the test substance was administered once daily for 6 days (day 0 to day 5).
The compound was orally administered at a volume of 0.1 mL/10 g (body weight).
NDP-αMSH (control drug): a required amount of compound was weighed as free-form equivalent, and dissolved in Dulbecco's phosphate-buffered saline (PBS) at a concentration of 0.4 mg/mL. The drug was subcutaneously administered at a volume of 0.05 mL/10 g (body weight).
Evaluation and sampling were performed on day 6. The mice were euthanized by cervical dislocation, thereafter subjected to hair shaving of each back with a clipper, and each individual was rated as positive (+) or negative (−) by the degree of darkening of body hair.
A statistical analysis was performed by SAS, and the significance level was 0.05. A 0.5% MC administration group and an NDP-αMSH group were analyzed by Fisher's exact probability test. […] The fixed-order test was performed by Fisher's exact probability test from a higher dose, and, if significant, performing analysis at a lower dose.

[6] = tested on: Mouse melanoma derived cell line B16F1 cells; experiment: Melanin production assay in mouse melanoma cell line
Protocol: The following procedure was used to evaluate the effect of a MC1R agonist on melanin production from mouse melanoma cell lines.
Mouse melanoma derived cell line B16F1 cells were used in measurement of melanin production. B16F1 cells were cultured by using Dulbecco's Modified Eagle Medium (DMEM) containing 10% fetal bovine serum (FBS) and 100 U/mL Penicillin-Streptomycin.
One experiment was performed in triplicate, and three independent experiments were performed.
In consideration of the correspondence of each experiment, the difference in % value from a negative control was determined by performing a two-way Dunnett's test based on each group and the number of experiments as factors. The significance level here was 5% on both sides. Such analysis was performed with SAS.

[7] = grade + (Slight), dorsal skin, UVA irradiated, 10 animals, 3 mg/kg for 8 weeks
[8] = grade ± (Minimal), dorsal skin, UVA irradiated, 10 animals, 3 mg/kg for 8 weeks
[9] = 0.003 mg/kg p.o. once daily for 6 days
[10] = 0.03 mg/kg p.o. once daily for 6 days
[11] = 0.3 mg/kg p.o. once daily for 6 days
[12] = 3 mg/kg p.o. once daily for 6 days

CCO[C@H]1CC[C@H](N2C[C@@H](c3ccc(OC)cc3)[C@](OC)(C(=O)N3C[C@H](c4ccc(C(F)(F)F)cc4N4CCC(C(=O)O)CC4)C[C@H]3COC)C2)CC1.Cl.Cl (relative stereo) [Compound B, 1-{2-[(3S,5S)-1-[(3R,4R)-1-(trans-4-ethoxycyclohexyl)-3-methoxy-4-(4-methoxyphenyl)pyrrolidin-3-yl]carbonyl}-5-(methoxymethyl)pyrrolidin-3-yl]-5-(trifluoromethyl)phenyl piperidine-4-carboxylic acid, 2 hydrochloride]
skin wrinkle scores [1]: lower or tended to be lower than those of the vehicle control group | Epidermal CPD staining ([2]; 3 mg/kg once daily for 8 weeks (compound B oral, HP-228 intraperitoneal)): tended to be less positive than in the vehicle control group | Number of animals, CPDs immunostaining, Cells in dermis, grading + [2, 7]: 10 | Number of animals, CPDs immunostaining, Epidermis (cell nuclei), grading + [2, 7]: 1 | Number of animals, CPDs immunostaining, Hair follicles in dermis (cell nuclei), grading + [2, 7]: 1 | Number of animals, CPDs immunostaining, Sebaceous glands (cell nuclei), grading + [2, 7]: 9 | Number of animals, CPDs immunostaining, Epidermis (cell nuclei), grading ++ ([2]; grade ++ (Moderate), dorsal skin, UVA irradiated, 10 animals, 3 mg/kg for 8 weeks): 6 | Number of animals, CPDs immunostaining, Epidermis (cell nuclei), grading +++ ([2]; grade +++ (Severe), dorsal skin, UVA irradiated, 10 animals, 3 mg/kg for 8 weeks): 3 | Number of animals, CPDs immunostaining, Hair follicles in dermis (cell nuclei), grading ± [2, 8]: 9 | Number of animals, CPDs immunostaining, Other tissues (incl. cytoplasm in sebaceous glands), grading ± [2, 8]: 10 | Number of animals, CPDs immunostaining, Sebaceous glands (cell nuclei), grading ± [2, 8]: 1 | amount of type I collagen in the skin (type I collagen): significantly higher than that of the vehicle control group

COC[C@H]1CN(C(=O)[C@]2(F)CN(C3CCCC3)C[C@H]2c2ccc(OC)cc2)C[C@@H]1c1ccc(C(F)(F)F)cc1N1CCC(C(=O)O)CC1 [Compound A, Cocrystal of 1-{2-[(3S,4R)-1-{[(3R,4R)-1-cyclopentyl-3-fluoro-4-(4-methoxyphenyl)pyrrolidin-3-yl]carbonyl}-4-(methoxymethyl)pyrrolidin-3-yl]-5-(trifluoromethyl)phenyl}piperidine-4-carboxylic acid with phosphoric acid]
TYRP1 Rate of changes (times) ([3]; 30 mg single oral dose): 1.3 times | TYRP1 Rate of changes (times) ([3]; 100 mg single oral dose): 1.37 times | TYRP1 Rate of changes (times) ([3]; 300 mg single oral dose): 2.14 times | TYRP1 Rate of changes (times) ([3]; 600 mg single oral dose): 2.65 times | PMEL Rate of changes (times) ([4]; 30 mg single oral dose): 1.22 times | PMEL Rate of changes (times) ([4]; 100 mg single oral dose): 1.77 times | PMEL Rate of changes (times) ([4]; 300 mg single oral dose): 2.49 times | PMEL Rate of changes (times) ([4]; 600 mg single oral dose): 3.54 times | increase in melanin density of the skin (skin of healthy subjects; 450 mg orally once daily for 14 days, subjects Fitzpatrick Type V): no increase in melanin density | increase in melanin density of the skin: time of maximum (skin of healthy subjects; 150 and 300 mg orally once daily for 14 days): maximum on day 15 | Number of mice Negative (darkening of body hair) [5, 9]: 7 | Number of mice Positive (darkening of body hair) [5, 9]: 0 | Number of mice Negative (darkening of body hair) [5, 10]: 7 | Number of mice Positive (darkening of body hair) [5, 10]: 0 | Number of mice Negative (darkening of body hair) [5, 11]: 0 | Number of mice Positive (darkening of body hair) [5, 11]: 7** | Number of mice Negative (darkening of body hair) [5, 12]: 0 | Number of mice Positive (darkening of body hair) [5, 12]: 7** | melanin production ([6]; B16F1 cells, 3 days, FIG. 1): induced melanin production in a concentration-dependent manner | EC50 ([6]; Mus musculus, B16-F1, 72 h, read-out: EC50 value, melanin production): 0.013 nM
